Results on six compounds are retold here after patent publication US11371097B2, “Articles for diagnosis of liver fibrosis” (THE GOVERNMENT OF THE UNITED STATES, as represented by THE …, priority 2015, dated 2022).

Where “and” joins values, the source holds several entries; their conditions need not be identical. Identical values can stand only once. Like-named read-outs stand apart in the source and are kept apart here.

Series [1] concerns liver. The note with it: cited from earlier work.
The subject of another series is Timp1. Description: qPCR of liver RNA: Timp1. It counts as in vivo, Male Sprague-Dawley rats. The note with it: across dose groups, vs control. How it is done:
(§1) Working on dry ice, a portion (−10 mg) of flash-frozen liver was cut from each sample and transferred to a clean, labeled tube. Total RNA was then isolated using Qiagen's miRNeasy 96 kit (Qiagen, Valencia, Calif.) following manufacturer's instructions with a final elution volume of −150 μL (2×75 μL). The quality and quantity of RNA samples were evaluated with a 2100 Bioanalyzer (Agilent Technologies, Santa Clara, Calif.), using the Agilent RNA 6000 Nano Reagents and a multiwell NanoDrop 8000 spectrophotometer (Thermo Fisher Scientific, Waltham, Mass.).
Using 1 μg RNA input, cDNA was generated using a QuantiTect Reverse Transcription kit (Qiagen, Valencia, Calif.) following manufacturer's instructions. Applied Biosystems SYBR Green Master Mix was used in a 20 μL qPCR reaction with 2 μL of cDNA template and a 2.tM final concentration of each primer. A total of five genes were targeted (Gapdh, Actb, Timp1, Tgfbl, and Psma5), two of which served as the endogenous controls (Gapdh and Actb). An Applied Biosystems 7500 Real-Time PCR System (Applied Biosystems, Foster City, Calif.) was used for thermal cycling and fluorescence detection using the default settings for Quantitation-Comparative CT with SYBR® . . . Green Reagents which uses the following scheme: 95° C. for 10 minutes followed by 40 cycles of: 95° C. for 15 seconds, 60° C. for 1 minute, and a fluorescence signal read. […]
A general note: Quantitative PCR measures a nucleic acid by following its amplification.

Series [2] concerns 67 genes on the fibrosis gene panel. The experiment in a line: Multiplexed fibrosis gene panel (QuantiGene 2.0 Plex / Bioplex) on liver RNA. The note with it: liver, 67 genes.
A further series concerns Tgfb1. Description: qPCR of liver RNA: Tgfb1. The note with it: liver, across dose groups, vs control. It counts as in vivo, Male Sprague-Dawley rats. How it is done: as §1
Using 1 μg RNA input, cDNA was generated using a QuantiTect Reverse Transcription kit (Qiagen, Valencia, Calif.) following manufacturer's instructions. Applied Biosystems SYBR Green Master Mix was used in a 20 μL qPCR reaction with 2 μL of cDNA template and a 2.tM final concentration of each primer. A total of five genes were targeted (Gapdh, Actb, Timp1, Tgfbl, and Psma5), two of which served as the endogenous controls (Gapdh and Actb). An Applied Biosystems 7500 Real-Time PCR System (Applied Biosystems, Foster City, Calif.) was used for thermal cycling and fluorescence detection using the default settings for Quantitation-Comparative CT with SYBR® . . . Green Reagents which uses the following scheme: 95° C. for 10 minutes followed by 40 cycles of: 95° C. for 15 seconds, 60° C. for 1 minute, and a fluorescence signal read. Al! primers were obtained from Integrated DNA Technology's PrimeTime qPCR primer library (Integrated DNA Technologies, Coralville, Iowa).
Data was imported into GraphPad Prism (GraphPad Software, Inc.; LaJolla, Calif.) for analysis. A nonparametric Kruskal-Wallis analysis of variance by ranks with post hoc […] multiple comparison test was used to determine statistical difference among dose groups. A one sample t-test compared to a theoretical mean of 1.0 fold change was used to determine difference from control for each dose group. A p-value<0.05 was used as a cutoff for statistical significance.

Series [3] concerns liver. It counts as in vivo, Male Sprague-Dawley rats. The method, then:
All chemical compounds were diluted in corn oil (CAS No. 8001-30-7) (MP Biomedicals, LLC (Solon, Ohio)). The dose volume was 5 mL/kg. Doses were selected based on doses published in the DrugMatrix database, the National Toxicology Program reports, and ATSDR reports.
(§2) In vivo rat experiments were performed at Integrated Laboratory Systems (ILS, Research Triangle Park, NC). ILS's Institutional Animal Care and Use Committee approved all experimental procedures. Research was conducted in compliance with the Animal Welfare Act, and other Federal statutes and regulations relating to animals and experiments involving animals and adheres to principles stated in the “Guide for Care and Use of Laboratory Animals” as prepared by the Committee on Care and Use of Laboratory Animals of the Institute of Laboratory Animal Resources, National Research Council in facilities that are fully accredited by the Association for Assessment and Accreditation of Laboratory Animal Care, International. Male Sprague-Dawley rats (CD IGS [CRL:CD (SD)]) were purchased from Charles River Laboratories (Stone Ridge, N.Y.). Rats weighing 215-245 g (8 weeks old) were used. Briefly, rats were housed two per cage with a rat tunnel enrichment device (Bio-Serve, Frenchtown, N.J.). Rats were fed a Purina Rodent Diet No. 5002 (Ralston Purina Co., St. Louis, Mo.), supplied ad libitum. Animals received reverse osmosis-treated tap water (City of Durham, N.C.) ad libitum, which was changed at least once weekly. Controls in the animal rooms were set to maintain temperatures between 20-In vivo rat experiments were performed at Integrated Laboratory Systems (ILS, Research Triangle Park, NC). ILS's Institutional Animal Care and Use Committee approved all experimental procedures. Research was conducted in compliance with the Animal Welfare Act, and other Federal statutes and regulations relating to animals and experiments involving animals and adheres to principles stated in the “Guide for Care and Use of Laboratory Animals” as prepared by the Committee on Care and Use of Laboratory Animals of the Institute of Laboratory Animal Resources, National Research Council in facilities that are fully accredited by the Association for Assessment and Accreditation of Laboratory Animal Care, International. Male Sprague-Dawley rats (CD IGS [CRL:CD (SD)]) were purchased from Charles River Laboratories (Stone Ridge, N.Y.). Rats weighing 215-245 g (8 weeks old) were used. Briefly, rats were housed two per cage with a rat tunnel enrichment device (Bio-Serve, Frenchtown, N.J.). Rats were fed a Purina Rodent Diet No. 5002 (Ralston Purina Co., St. Louis, Mo.), supplied ad libitum. Animals received reverse osmosis-treated tap water (City of Durham, N.C.) ad libitum, which was changed at least once weekly. Controls in the animal rooms were set to maintain temperatures between 20-25° C. with a relative humidity of 30-70% and a 12-hour light/12-hour dark cycle, lights on at 6:00 AM. Clinically healthy animals were assigned to dose groups using a procedure that stratifies animals across groups by body weight such that mean body weight of each group was not statistically different from any other group using analysis of variance (Statistical Analysis System version 9.2, SAS Institute, Cary, N.C.). Animals were dosed by oral gavage for five consecutive days (+10 minutes from the previous day's dose administration time). Volume was based upon daily body weight.
Animals were observed cageside one hour following daily dose administration, then 1-2 times per day during dosing regimens. Body weights were measured daily prior to dose administration, and prior to euthanasia. Twenty-four hours after the final dose administration, animals were anesthetized with isoflurane then euthanized by exsanguination followed by decapitation. Livers were harvested at necropsy and weighed to within 0.1 g. One half of the left lobe of the liver was fixed in 10% formalin. […]

The format of series [4] is in vivo, Male Sprague-Dawley rats. How it is done: as §2
Animals were observed cageside one hour following daily dose administration, then 1-2 times per day during dosing regimens. Body weights were measured daily prior to dose administration, and prior to euthanasia. Twenty-four hours after the final dose administration, animals were anesthetized with isoflurane then euthanized by exsanguination followed by decapitation. Livers were harvested at necropsy and weighed to within 0.1 g. One half of the left lobe of the liver was fixed in 10% formalin. The remaining half of the left lobe of the liver was flash frozen in liquid nitrogen, then stored below −70° C. Liver specimens were frozen in less than three minutes from time of death.

Setting [5] is: 5-7 days oral administration or intraperitoneal injection, various doses.
[6] abbreviates: Allyl Alcohol 9.7 mg/kg, animals 9-12.
[7] abbreviates: Allyl Alcohol 45 mg/kg, animals 17, 18, 20.
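Wherever Cytoplasmic Alteration is given: Severity grades from None 0% through Minimal Mild Moderate to Marked over 80% tissue affected.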
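Wherever Inflammation is given: Severity grades from None 0% through Minimal Mild Moderate to Marked over 80% tissue affected.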
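Wherever Vacuolation is given: Severity grades from None 0% through Minimal Mild Moderate to Marked over 80% tissue affected.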

As for `S=C=Nc1cccc2ccccc12` [1-naphthyl isothiocyanate], in the series on liver [1] (rat, in vivo), the “Fibrosis score in the DrugMatrix study” value was “scored fibrosis-positive”.
`CC(C)(Oc1ccc(CCNC(=O)c2ccc(Cl)cc2)cc1)C(=O)O` [bezafibrate]: the “Fibrosis score in the DrugMatrix study” value with liver [1] (setting [5]) was “scored fibrosis-positive”.
Regarding `COc1ccccc1OCCNCC(O)COc1cccc2[nH]c3ccccc3c12` (stereo not shown) [carvedilol], the “Fibrosis score in the DrugMatrix study” value with liver [1] (setting [5]) is on record as “scored fibrosis-positive”.
In the case of `CC=CC(=O)N(CC)c1ccccc1C` [crotamiton], the “Fibrosis score in the DrugMatrix study” value in the series on liver [1] (setting [5]) was “scored fibrosis-positive”.
Turning to `C[C@]12CC[C@H]3[C@@H](CCC4=CC(=O)CC[C@@]43C)[C@@H]1CC[C@@H]2O` [testosterone], in the series on liver [1] (setting [5]), the “Fibrosis score in the DrugMatrix study” value is recorded as “scored fibrosis-positive”.
On to allyl alcohol, for which the “Timp1 gene expression by qPCR” value in the series with Timp1 was “showed a dose-dependent increase”. In the series on liver [1] (setting [5]), the “Fibrosis score in the DrugMatrix study” value is recorded as “scored fibrosis-positive”. In addition, the “Hierarchical biclustering of log2 fold-changes in panel gene expression” value in series [2] is on record as “clustered with the non-fibrogenic chemical-dose groups”. In addition, in the series on Tgfb1, the “Tgfb1 gene expression by qPCR” value is listed as “showed a dose-dependent increase”. Besides, in the series with liver [3] (setting [6]), the “Bile Duct Hyperplasia and Fibroplasia” value was determined as 0; the “Cytoplasmic Alteration” value is on record as 1; the Inflammation amounted to 0; the Necrosis is listed as 0. The compound also had a Vacuolation with liver [3] (setting [6]) of 0. The Vacuolation in the series with liver [3] (Allyl Alcohol 20.9 mg/kg, animals 13-16) came out at 0. For the same compound, in the series on liver [3] (setting [7]), the “Bile Duct Hyperplasia and Fibroplasia” value is on record as 3; the “Cytoplasmic Alteration” value was 3 and 4 and 2; the Inflammation is 3 and 2; the Necrosis is 3 and 4. The Vacuolation in the series with liver [3] (setting [7]) came to 0. Further, the “Combined histopathological scores as percent of animals with pathology” value with liver [3] (across dose groups, five days (figure legend)) is recorded as “dose-dependent increase in severe pathology”. In the series on liver [3] (high doses), the “Fibrosis histopathology in the present study” value is given as “associated with fibrosis histopathology”. In addition, the “Fibrosis histopathology in the present study” value in the series with liver [3] (high doses, listed as Allyl alcohol) was “scored positive for fibrosis”. Also, the Fibrosis histopathology entry in the series on liver [3] (low-dose (carbon tetrachloride: all doses)) is “without fibrosis”. Besides, the Degree of fibrosis entry in the series on liver [3] (oral gavage five days, across doses) is on record as “dose-dependent increase in the degree of fibrosis”. The “Histopathology: bile duct hyperplasia, fibrosis, necrosis” value in the series with liver [3] (oral gavage five days, high doses) is “caused bile duct hyperplasia comorbid with fibrosis and necrosis”. Besides, the “Body weight gain over the five experimental dosing days” value in series [4] (dose groups) is reported as “increase in body weight gain”. For the same compound, the “Body weight change over the five-day exposure interval” value in series [4] (highest dose(s)) is given as “gained less weight over the five-day exposure interval than their low-dose counterparts”.
